Source: ChEMBL document CHEMBL1135324, “Quaternary salts of E2020 analogues as acetylcholinesterase inhibitors for the reversal of neuromuscular block” (Bioorg Med Chem Lett, 2002)

How the values were obtained:
[1] = Tested for water solubility of the compound; format: ADME; details: read-out: S
Acetylcholinesterase [2] = biological target: T1, Acetylcholinesterase (Homo sapiens, UniProt P22303)
Description: In vitro reversal of vecuronium-induced neuromuscular block in guinea pig hemi-diaphragm.

Acetylcholinesterase [3] = biological target: T1, Acetylcholinesterase; remark: listed apart in the source
Felis catus [4] = experiment: Change in response to vagal stimulation was detected in anaesthetised cats on administration of the compound; format: functional; note: test concentration or dose not given here
Felis catus [5] = experiment: Change in heart rate was detected in anaesthetised cats on administration of the compound; format: functional; note: test concentration or dose not given here
Felis catus [6] = experiment: Effective dose required for the reversal of vecuronium-induced neuromuscular block in-vivo in Chloaralose anaesthetised cats; format: functional
Felis catus [7] = experiment: Maximum reversal of vecuronium-induced neuromuscular block in-vivo in anaesthetised cats; format: functional
Felis catus [8] = experiment: Mean arterial pressure change was detected in anaesthetised cats on administration of the compound; format: functional, Artery; note: test concentration or dose not given here
Felis catus [9] = experiment: Maximum reversal of vecuronium-induced neuromuscular block in-vivo in anaesthetised cats at 1.28 umol/kg; format: functional
Acetylcholinesterase [10] = biological target: T1, Acetylcholinesterase; experiment: In vitro inhibition of human recombinant AChE.

T1 sequence (P22303 whole entry): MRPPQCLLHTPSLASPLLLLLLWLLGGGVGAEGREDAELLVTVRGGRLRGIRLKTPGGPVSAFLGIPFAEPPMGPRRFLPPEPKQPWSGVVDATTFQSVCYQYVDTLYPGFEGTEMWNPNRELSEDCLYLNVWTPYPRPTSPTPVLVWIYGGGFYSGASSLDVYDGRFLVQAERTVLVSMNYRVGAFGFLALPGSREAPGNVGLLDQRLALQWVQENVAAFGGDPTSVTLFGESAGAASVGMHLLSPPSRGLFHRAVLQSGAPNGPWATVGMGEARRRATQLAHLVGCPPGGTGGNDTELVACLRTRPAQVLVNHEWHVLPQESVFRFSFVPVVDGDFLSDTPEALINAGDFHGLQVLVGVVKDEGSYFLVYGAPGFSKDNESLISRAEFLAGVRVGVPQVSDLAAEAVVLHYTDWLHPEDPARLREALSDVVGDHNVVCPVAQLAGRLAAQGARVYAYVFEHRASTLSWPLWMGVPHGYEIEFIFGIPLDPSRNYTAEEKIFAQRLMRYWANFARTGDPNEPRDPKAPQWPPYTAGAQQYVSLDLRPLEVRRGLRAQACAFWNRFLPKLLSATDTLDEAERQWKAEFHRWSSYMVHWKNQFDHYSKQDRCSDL

| Compound | solubility [1] | EC50 (Acetylcholinesterase [2]) | IC50 (Acetylcholinesterase [3]) | Vagus (Felis catus [4]) | HR (Felis catus [5]) | ED50 (Felis catus [6]) | MAP (Felis catus [8]) | other results |
| --- | --- | --- | --- | --- | --- | --- | --- | --- |
| C[N+]1(Cc2ccccc2)CCC(CCC(=O)c2ccc3c(c2)OCO3)CC1 (configuration not stated) | 500 µg/mL | 1700 nM | 240 nM |  |  |  |  |  |
| COc1cc2c(cc1OC)C(=O)C(C(O)C1CC[N+](Cc3ccccc3)(Cc3ccccc3)CC1)C2 (configuration not stated) |  | 43500 nM |  |  |  |  |  |  |
| C[N+]1(Cc2ccccc2)CCC(CCC(=O)c2ccc3c(c2)CCCCO3)CC1 (configuration not stated) | 5000 µg/mL |  | 139 nM |  |  |  |  |  |
| COc1cc2c(cc1OC)C(=O)[C@@H]([C@@H](O)C1CC[N+](C)(Cc3ccccc3)CC1)C2 (some centres not stated) |  | 2700 nM |  |  |  |  |  |  |
| COc1cc2c(cc1OC)C(=O)C(CC1CC[N+](C)(Cc3ccccc3)CC1)C2 (configuration not stated) |  | 100 nM | 25 nM | 37 delta % | 11 delta % | ~0.06 µmol/kg | -22 delta % | Max rev (Felis catus [7]): 131% |
| C[N+]1(Cc2ccccc2)CCC(CCC(=O)c2ccc3c(c2)NCCCC3)CC1 (configuration not stated) |  | 331 nM | < 500 nM | 10 delta % | 4 delta % | 0.15 µmol/kg | -6 delta % | Max rev (Felis catus [7]): 140% |
| COc1cc2cc(C(=O)CCC3CC[N+](C)(Cc4ccccc4)CC3)n(C)c2cc1OC (configuration not stated) | 1200 µg/mL | 1600 nM | 120 nM |  |  |  |  |  |
| CC1=CC2Cc3[nH]c(=O)ccc3C3(C1)C2CCCN3C (configuration not stated) |  | > 10000 nM | > 100000 nM |  |  |  |  |  |
| COc1ccc2c3c1OC1C[C@@H](O)C=C[C@@]31CC[N+](C)(C)C2 (some centres not stated) |  | 630 nM | ~500 nM | 80 delta % | -5 delta % | 0.1 µmol/kg | 16 delta % | Max rev (Felis catus [7]): 130% |
| C[N+]1(Cc2ccccc2)CCC(CCC(=O)c2ccc3c(c2)OCCO3)CC1 (configuration not stated) | < 500 µg/mL | > 3000 nM | 100 nM |  |  |  |  |  |
| C[N@+]1(Cc2ccccc2)CC[C@H](CCC(=O)c2ccc3c(c2)CCO3)CC1 | > 10000 µg/mL |  | 66 nM |  |  |  |  |  |
| COc1cc2c(cc1OC)C(=O)/C(=C/c1cc[n+](Cc3ccccc3)cc1)C2 |  | 12 nM |  |  |  |  |  |  |
| Cc1cc(C(=O)CCC2CC[N+](C)(Cc3ccccc3)CC2)nn1-c1ccccc1 (configuration not stated) | 2000 µg/mL | 430 nM | 22 nM |  |  |  |  |  |
| COc1cc2cc(C(=O)CCC3CC[N+](C)(Cc4ccccc4)CC3)sc2cc1OC (configuration not stated) | 2000 µg/mL | 19 nM | 8 nM |  |  |  |  |  |
| C[N+]1(Cc2ccccc2)CCC(CCC(=O)c2ccc3c(c2)CCO3)CC1 (configuration not stated) | 1500 µg/mL | 90 nM | 17 nM |  |  |  |  |  |
| COc1cc2c(cc1OC)C(=O)[C@@H]([C@H](O)C1CC[N+](C)(Cc3ccccc3)CC1)C2 (some centres not stated) |  | 890 nM |  |  |  |  |  |  |
| COc1cc2c(cc1OC)C(=O)C(Cc1cc[n+](Cc3ccccc3)cc1)C2 (configuration not stated) |  | 100 nM |  |  |  |  |  |  |
| COc1ccc2cc(C(=O)CCC3CC[N+](C)(Cc4ccccc4)CC3)ccc2c1 (configuration not stated) | < 1000 µg/mL | 530 nM | 50 nM |  |  |  |  |  |
| COc1cc2c(cc1OC)C(=O)C(C(O)C1CC[N+](C)(Cc3ccccc3)CC1)C2 (configuration not stated) |  | 1440 nM |  | 18 delta % | -12 delta % | 0.21 µmol/kg | -22 delta % | Max rev (Felis catus [9]): 109% |
| COc1cc2c(cc1OC)C(=O)C(C(O)c1cc[n+](Cc3ccccc3)cc1)C2 (configuration not stated) |  | 1880 nM |  |  |  |  |  |  |
| COc1cc2c(cc1OC)C(=O)C(CC1CCN(Cc3ccccc3)CC1)C2 (configuration not stated) [DONEPEZIL] |  |  |  | 14 delta % | -12 delta % | 0.53 µmol/kg | -12 delta % | Max rev (Felis catus [7]): 106% |
| CC1=C[C@H]2Cc3[nH]c(=O)ccc3[C@]3(C1)NCCC[C@H]23 [HUPERZINE B] |  | 19 nM |  | 102 delta % | -8 delta % | 0.08 µmol/kg | -17 delta % | Max rev (Felis catus [7]): 156%; IC50 (Acetylcholinesterase [10]): 30 nM |
| O=C(CCC1CCN(Cc2ccccc2)CC1)c1ccc2c(c1)NCCCC2 [ZANAPEZIL] |  |  |  | 8 delta % | -5 delta % | 3.7 µmol/kg | -11 delta % | Max rev (Felis catus [7]): 68% |
